Measured values published in patent publication US7741484B2, “Process for synthesis of phenoxy diaminopyrimidine derivatives” (Roche Palo Alto LLC, priority 2005, dated 2010).

Target: T1, rat P2X3 receptor (Rattus norvegicus, UniProt P49654)
T1 construct: expressed in transfected cells; host or cells: CHO-K1
T1 sequence (P49654 1-397): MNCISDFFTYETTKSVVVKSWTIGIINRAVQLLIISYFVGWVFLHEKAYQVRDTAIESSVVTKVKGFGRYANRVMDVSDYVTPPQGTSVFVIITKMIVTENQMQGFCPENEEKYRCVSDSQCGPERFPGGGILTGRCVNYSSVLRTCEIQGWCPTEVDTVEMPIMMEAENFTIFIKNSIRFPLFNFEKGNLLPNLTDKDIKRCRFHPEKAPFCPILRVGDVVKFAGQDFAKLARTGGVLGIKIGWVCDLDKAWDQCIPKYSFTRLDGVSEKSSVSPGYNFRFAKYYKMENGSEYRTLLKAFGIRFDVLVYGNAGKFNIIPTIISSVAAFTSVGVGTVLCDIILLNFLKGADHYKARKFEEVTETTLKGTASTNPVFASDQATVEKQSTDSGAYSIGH
Assay: P2X3 FLIPR (Fluorometric Imaging Plate Reader) assay, inhibition of α,β-meATP-evoked calcium fluorescence
Format: cell-based
Conditions: CHO-K1 cells transfected with cloned rat P2X3; agonist α,β-meATP 1 μM; Fluo-3 AM; read-out: pIC50 for the P2X3 receptor (converted)
Procedure: CHO-K1 cells were transfected with cloned rat P2X3 or human P2X2/3 receptor subunits and passaged in flasks. 18-24 hours before the FLIPR experiment, cells were released from their flasks, centrifuged, and resuspended in nutrient medium at 2.5×10^5 cells/ml. The cells were aliquoted into black-walled 96-well plates at a density of 50,000 cells/well and incubated overnight in 5% CO2 at 37° C. On the day of the experiment, cells were washed in FLIPR buffer (calcium- and magnesium-free Hank's balanced salt solution, 10 mM HEPES, 2 mM CaCl2, 2.5 mM probenecid; FB). Each well received 100 μl FB and 100 μl of the fluorescent dye Fluo-3 AM [2 μM final conc.]. […]
Test compounds (dissolved in DMSO at 10 mM and serially diluted with FB) or vehicle were added to each well (25 μl of a 4× solution) and allowed to equilibrate for 20 minutes at room temperature. The plates were then placed in the FLIPR and a baseline fluorescence measurement (excitation at 488 nm and emission at 510-570 nm) was obtained for 10 seconds before a 100 μl/well agonist or vehicle addition. […] Fluorescence was measured for an additional 2 minutes at 1 second intervals after agonist addition. A final addition of ionomycin (5 μM, final concentration) was made to each well of the FLIPR test plate to establish cell viability and maximum fluorescence of dye-bound cytosolic calcium. […]

IC50: ~10 nM
SMILES: COc1cc(C(C)C)c(Oc2cnc(N)nc2N)cc1I [5-(5-Iodo-2-isopropyl-4-methoxy-phenoxy)-pyrimidine-2,4-diamine]
